The source of these data is patent US8017611B2, “Pyridine and pyrazine derivatives -083” (AstraZeneca AB, priority 2007, dated 2011).

The target of one test is T1, recombinant Axl tyrosine kinase (Homo sapiens, UniProt P30530).
T1 construct: encompassing amino acids 473 to 894 of Axl; GST (N); made in house; host or cells: SF126 insect cells
T1 sequence (P30530 473-894): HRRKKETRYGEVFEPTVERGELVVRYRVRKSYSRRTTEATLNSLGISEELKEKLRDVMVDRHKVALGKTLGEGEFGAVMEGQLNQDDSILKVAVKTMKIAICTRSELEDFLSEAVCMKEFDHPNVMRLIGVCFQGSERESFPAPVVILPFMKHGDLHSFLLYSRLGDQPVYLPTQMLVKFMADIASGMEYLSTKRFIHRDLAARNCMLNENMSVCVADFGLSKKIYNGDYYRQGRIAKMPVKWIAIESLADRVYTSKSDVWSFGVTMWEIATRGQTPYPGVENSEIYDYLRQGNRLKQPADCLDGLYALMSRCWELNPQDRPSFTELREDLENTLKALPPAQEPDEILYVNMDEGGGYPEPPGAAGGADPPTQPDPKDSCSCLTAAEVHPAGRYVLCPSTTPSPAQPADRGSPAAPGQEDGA
Briefly: In vitro Axl kinase assay (AlphaScreen), Test (a). In kind it is biochemical. The following applies: test compound at 1 μM; first value quoted. How it is done:
Test compounds were prepared as 10 mM stock solutions in dimethylsulphoxide (DMSO) and diluted in DMSO as required. Aliquots (120 nl) of compound dilutions were filled into the wells of a Greiner 384-well low volume (LV) white polystyrene plate (Greiner Bio-one) using acoustic dispensing (Labcyte Echo 550). A 10 μl mixture of recombinant purified Axl enzyme, biotinylated peptide substrate (Biotin poly-GAT; CisBio, Catalogue No. 61GATBLB), 0.2 μM adenosine triphosphate (ATP) and a buffer solution [comprising 20 mM Tris-HCl pH 7.5 buffer, 0.01% v/v Tween, 5 mM dithiothreitol (DTT) and 10 mM manganese chloride] was incubated with the compounds at room temperature for 20 minutes.
Control wells that produced a minimum signal corresponding to 100% inhibited enzyme were created by adding 10 μM of Staurosporine.
The percentage kinase inhibition value is the percentage of Axl tyrosine kinase activity inhibited by the test compound at a concentration of 1 μM.
On the technique in general: In Alpha technology, singlet oxygen from a donor bead excites a nearby acceptor bead.
Take `CCS(=O)(=O)c1ccc(-c2cnc(N)c(-c3nc4ccccc4o3)c2)cc1` [Example 2.1]: the “% Axl tyrosine kinase inhibition at 1 μM concentration” value (“% Axl tyrosine kinase inhibition” below) was determined as 93.7%.
In the case of `NCc1cccc(-c2cnc(N)c(-c3nc4ccccc4o3)c2)c1` [Example 2.4], the “% Axl tyrosine kinase inhibition” value stood at 99.1%.
As for `CCS(=O)(=O)c1cccc(-c2cnc(N)c(-c3nc4ccccc4o3)c2)c1` [Example 2.5], the “% Axl tyrosine kinase inhibition” value is given as 73.5%.
`Nc1ncc(-c2cccc(CN3CCCC3)c2)cc1-c1nc2ccccc2o1` [Example 2.6]: the “% Axl tyrosine kinase inhibition” value is recorded as 99.0%.
For `Nc1ncc(-c2ccc(CN3CCOCC3)cc2)cc1-c1nc2ccccc2o1` [Example 2.7], the “% Axl tyrosine kinase inhibition” value is 99.1%.
As for `CN(C)CCNC(=O)c1cccc(-c2cnc(N)c(-c3nc4ccccc4o3)c2)c1` [Example 2.8], the “% Axl tyrosine kinase inhibition” value came to 96.5%.
Turning to `COCCOc1ccc(-c2cnc(N)c(-c3nc4ccccc4o3)c2)cc1` [Example 2.9], the “% Axl tyrosine kinase inhibition” value was found to be 40.3%.
On the same count and under the same terms, under `Nc1ncc(-c2ccc(C(=O)N3CCC(O)CC3)cc2)cc1-c1nc2ccccc2o1` [Example 2.11] stands 98.9%; under `NCc1ccc(-c2cnc(N)c(-c3nc4ccccc4o3)c2)cc1` [Example 2.13], 99.7%.
In the case of `Nc1ncc(-c2ccc(N3CCNCC3)cc2)cc1-c1nc2ccccc2o1` [Example 2.14], the “% Axl tyrosine kinase inhibition” value stood at 99.9%.
Turning to `COCc1cccc(-c2cnc(N)c(-c3nc4ccccc4o3)c2)c1` [Example 2.15], the “% Axl tyrosine kinase inhibition” value was 80.2%.
Same read-out and setting: for `Nc1ncc(-c2ccc(CO)cc2)cc1-c1nc2ccccc2o1` [Example 2.16] the value was 94.0%; for `CNC(=O)c1cccc(-c2cnc(N)c(-c3nc4ccccc4o3)c2)c1` [Example 2.17], 68.9%.
On to `CC(=O)Nc1cccc(-c2cnc(N)c(-c3nc4ccccc4o3)c2)c1` [Example 2.20], for which the “% Axl tyrosine kinase inhibition” value was 97.6%.
Consider `Nc1ncc(-c2ccc3c(c2)OCCO3)cc1-c1nc2ccccc2o1` [Example 2.21], for which the “% Axl tyrosine kinase inhibition” value is recorded as 45.4%.
Turning to `Nc1ncc(-c2cccc(CN3CCOCC3)c2)cc1-c1nc2ccccc2o1` [Example 2.22], the “% Axl tyrosine kinase inhibition” value was 97.9%.
In the case of `Nc1ncc(-c2ccc3[nH]ncc3c2)cc1-c1nc2ccccc2o1` [Example 2.23], the “% Axl tyrosine kinase inhibition” value is recorded as 87.2%.
Take `Nc1ncc(-c2cnc3ccccc3c2)cc1-c1nc2ccccc2o1` [Example 2.24]: the “% Axl tyrosine kinase inhibition” value is on record as 88.9%.
On the same count and under the same terms, for `Nc1ncc(-c2ccnc3ccccc23)cc1-c1nc2ccccc2o1` [Example 2.25] the value was 60.3%.

The same test, now with this note: test compound at 1 μM; first value quoted; read-out: % Axl tyrosine kinase inhibition at 1 μM concentration.
For `CN(C)Cc1ccc(-c2cnc(N)c(-c3nc4ccccc4o3)c2)cc1` [Example 1, 3-Benzoxazol-2-yl-5-[4-(dimethylaminomethyl)phenyl]pyridin-2-amine], the inhibition at 1 µM is 99.8%.
Turning to `CC(C)(C)OC(=O)N1CCC(n2cc(-c3cnc(N)c(-c4nc5ccccc5o4)c3)cn2)CC1` [Example 2.2, tert-butyl 4-[4-[6-amino-5-(1,3-benzoxazol-2-yl)-3-pyridyl]pyrazol-1-yl]piperidine-1-carboxylate], the inhibition at 1 µM is 99.5%.
For the compound `Nc1ncc(-c2cnn(C3CCNCC3)c2)cc1-c1nc2ccccc2o1` [Example 2.3, 3-(1,3-Benzoxazol-2-yl)-5-[1-(4-piperidyl)pyrazol-4-yl]pyridin-2-amine], the inhibition at 1 µM is 98.6%.
On to `Nc1ncc(-c2cccc(N3CCNCC3)c2)cc1-c1nc2ccccc2o1` [Example 2.10, 3-(1,3-Benzoxazol-2-yl)-5-(3-piperazin-1-ylphenyl)pyridin-2-amine], for which the inhibition at 1 µM was determined as 99.5%.
Regarding `Nc1ncc(-c2ccc(N3CCNCC3)nc2)cc1-c1nc2ccccc2o1` [Example 2.19, 3-(1,3-Benzoxazol-2-yl)-5-[6-(piperazin-1-yl)-3-pyridyl]pyridin-2-amine], the inhibition at 1 µM is 99.8%.
